Assay results taken from ChEMBL document CHEMBL4602737, “Structure-Guided Identification of DNMT3B Inhibitors” (ACS Med Chem Lett, 2020).

Tests used:
[1] = biological target: T1, DNA (cytosine-5)-methyltransferase 3B (Homo sapiens, UniProt Q9UBC3); test: Inhibition of human recombinant DNMT3B expressed in baculovirus infected insect cells using CpG site containing internally quenched hairpin oligonucleotide DNA substrate and SAM incubated for 30 mins by kinetic fluorogenic assay
[2] = biological target: DNA (cytosine-5)-methyltransferase 1 (Homo sapiens, UniProt P26358); test: Inhibition of human recombinant DNMT1 expressed in baculovirus infected insect cells using CpG site containing internally quenched hairpin oligonucleotide DNA substrate and SAM incubated for 30 mins by kinetic fluorogenic assay
DNA (cytosine-5)-methyltransferase 1, sequence (P26358 whole entry): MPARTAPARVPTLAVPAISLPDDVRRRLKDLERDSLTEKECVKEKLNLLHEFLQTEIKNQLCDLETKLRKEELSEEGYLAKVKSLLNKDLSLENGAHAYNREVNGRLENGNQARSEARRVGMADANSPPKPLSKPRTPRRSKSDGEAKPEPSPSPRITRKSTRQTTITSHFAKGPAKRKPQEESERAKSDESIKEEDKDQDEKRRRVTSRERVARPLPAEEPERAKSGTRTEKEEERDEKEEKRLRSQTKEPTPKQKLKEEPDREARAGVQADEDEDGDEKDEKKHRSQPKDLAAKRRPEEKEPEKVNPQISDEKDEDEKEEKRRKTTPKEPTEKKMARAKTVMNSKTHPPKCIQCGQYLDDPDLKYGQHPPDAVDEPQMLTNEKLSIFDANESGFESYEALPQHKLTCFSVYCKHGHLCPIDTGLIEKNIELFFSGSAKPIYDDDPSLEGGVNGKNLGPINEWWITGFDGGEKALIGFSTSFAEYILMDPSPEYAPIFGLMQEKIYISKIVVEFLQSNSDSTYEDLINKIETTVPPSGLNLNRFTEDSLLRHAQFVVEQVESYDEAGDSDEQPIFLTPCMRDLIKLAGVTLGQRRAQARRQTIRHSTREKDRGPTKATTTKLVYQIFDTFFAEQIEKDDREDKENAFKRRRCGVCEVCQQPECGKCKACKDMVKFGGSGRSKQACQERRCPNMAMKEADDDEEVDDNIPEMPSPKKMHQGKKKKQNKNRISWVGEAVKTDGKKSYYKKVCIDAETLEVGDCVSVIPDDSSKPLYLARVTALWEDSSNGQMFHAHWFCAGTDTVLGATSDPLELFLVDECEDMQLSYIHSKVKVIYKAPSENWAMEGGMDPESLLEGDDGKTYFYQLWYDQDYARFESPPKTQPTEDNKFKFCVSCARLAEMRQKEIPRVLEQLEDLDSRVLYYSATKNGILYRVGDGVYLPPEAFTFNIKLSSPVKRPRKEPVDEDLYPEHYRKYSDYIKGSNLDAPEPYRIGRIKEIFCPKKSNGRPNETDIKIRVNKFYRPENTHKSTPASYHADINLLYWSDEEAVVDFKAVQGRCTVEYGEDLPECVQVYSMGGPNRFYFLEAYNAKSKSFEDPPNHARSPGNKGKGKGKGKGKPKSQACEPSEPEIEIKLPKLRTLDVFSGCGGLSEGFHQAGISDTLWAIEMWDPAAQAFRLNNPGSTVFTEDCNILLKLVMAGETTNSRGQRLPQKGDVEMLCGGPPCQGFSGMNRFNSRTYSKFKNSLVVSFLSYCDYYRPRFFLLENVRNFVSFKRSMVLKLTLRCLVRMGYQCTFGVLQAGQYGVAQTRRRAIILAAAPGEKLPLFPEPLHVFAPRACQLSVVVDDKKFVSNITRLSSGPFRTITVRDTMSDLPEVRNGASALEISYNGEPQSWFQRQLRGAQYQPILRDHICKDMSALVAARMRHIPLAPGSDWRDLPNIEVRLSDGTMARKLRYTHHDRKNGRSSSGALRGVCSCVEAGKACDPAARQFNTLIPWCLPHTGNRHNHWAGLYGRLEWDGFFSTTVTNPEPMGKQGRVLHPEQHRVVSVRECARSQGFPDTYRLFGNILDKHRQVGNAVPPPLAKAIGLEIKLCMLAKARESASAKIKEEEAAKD

[3] = Toxicity in mouse; assay type: organism-based; conditions: in vivo
[4] = Cytotoxicity in African green monkey Vero cells assessed as reduction in cell viability; assay type: cell-based; conditions: chlorocebus sabaeus
[5] = biological target: T1, DNA (cytosine-5)-methyltransferase 3B; test: Inhibition of human recombinant DNMT3B expressed in baculovirus infected insect cells by DRONE assay

SMILES | IC50 [1] | also measured
O=C(O)[C@H](Cc1c[nH]c2ccccc12)N1C(=O)c2ccccc2C1=O |  | IC50 ([1]; read-out: IC50): 900 nM
CN(Cc1ccc2cc[nH]c2c1)C(=O)CCc1cccc(-c2cc3ccccc3[nH]2)c1 | Not Active | 
O=C(CCc1cccc(-c2nc3ccccc3[nH]2)c1)NCc1ccc2[nH]ncc2c1 | Not Active | 
O=C(CSc1ncnc2sccc12)N1CCN(Cc2cc(=O)n3ccsc3n2)CC1 |  | IC50 [2]: 27200 nM
CN(Cc1ccc2cn[nH]c2c1)C(=O)CCc1cccc(-c2nc3ccccc3[nH]2)c1 | Not Active | 
Cc1ccc2c(=O)c(-c3nc(-c4cccc(F)c4)no3)cn(CC(=O)Nc3ccc4c(c3)OCO4)c2n1 |  | IC50 [2]: 28500 nM
C[C@@H]1O[C@@H](CC(=O)O)CC2=C1C(=O)c1c(O)cccc1C2=O [NANAFROCIN] |  | LD50 [3]: 28 mg/kg; CC50 [4]: 700 nM; IC50 ([1]; read-out: IC50): 1500 nM; IC50 [5]: 730 nM

Now from value to compound, other results behind:

IC50 [1] | SMILES | also measured
Not Active | CN(Cc1ccc2cc[nH]c2c1)C(=O)CCc1cccc(-c2nc3ccccc3[nH]2)c1 | 
Not Active | CN(Cc1ccc2[nH]ccc2c1)C(=O)CCc1cccc(-c2nc3ccccc3[nH]2)c1 | 
Not Active | CN(Cc1ccc2cn[nH]c2c1)C(=O)CCc1cccc(-c2cc3ccccc3[nH]2)c1 | 
Not Active | CN(Cc1ccc2[nH]ccc2c1)C(=O)CCc1cccc(-c2cc3ccccc3[nH]2)c1 | 
